From patent US20240417370A1, “LIPIDS FOR USE IN LIPID NANOPARTICLE FORMULATIONS” (Acuitas Therapeutics, Inc., priority 2023, published 2024)

Test system: human IgG in mouse serum
Assay: Immunoglobulin G (IgG) mRNA in vivo evaluation using lipid nanoparticle compositions
Parameters: species or system mice
Details: LNP-formulated lipid, tail vein injection, μg IgG/mL serum 24 hours after administration; for Serum IgG @ 0.3 mg/kg: 0.3 mg mRNA/kg; for Serum IgG @ 1.0 mg/kg: 1.0 mg mRNA/kg
Protocol: A lipid of structure (I), DSPC, cholesterol and PEG-lipid are solubilized in ethanol at a molar ratio of 50:10:38.5:1.5 or 47.5:10:40.7:1.8. Lipid nanoparticles (LNP) are prepared at a total lipid to mRNA weight ratio of approximately 10:1 to 40:1. Briefly, the mRNA is diluted to 0.2 mg/mL in 10 to 50 mM citrate buffer, pH 4 to 6 or 10 to 25 mM acetate buffer, pH 4 to 6. Syringe pumps are used to mix the ethanolic lipid solution with the mRNA aqueous solution at a ratio of about 1:5 to 1:3 (vol/vol) with total flow rates above 15 mL/min. The ethanol is then removed, and the external buffer replaced with PBS by dialysis. Finally, the lipid nanoparticles are filtered through a 0.2 µm pore sterile filter.
Studies are performed in 6-8-week-old CD-1/ICR mice (Envigo, Charles River, or Inotiv) according to guidelines established by an institutional animal care committee (ACC) and the Canadian Council on Animal Care (CCAC). Varying doses of mRNA-lipid nanoparticle are systemically administered by tail vein injection and animals euthanized at a specific time point (e.g., 24 hours) post-administration. The whole blood is collected, and the serum subsequentially separated by centrifuging the tubes of the whole blood at 2000×g for 10 minutes at 4° C. and stored at −80° C. until use for analysis.
For immunoglobulin G (IgG) ELISA (Life Diagnostics Human IgG ELISA kit), the serum samples are diluted at 100 to 20,000 folds with 1× diluent solution. 100 μL of diluted serum is dispensed into anti-human IgG coated 96-well plate in duplicate alongside human IgG standards and incubated in a plate shaker at 150 rpm at 25° C. for 45 minutes. The wells are washed 5 times with 1× wash solution using a plate washer (400 μL/well). 100 μL of HRP conjugate is added into each well and incubated in a plate shaker at the same condition above. The wells are washed 5 times again with 1× wash solution using a plate washer (400 μL/well). 100 μL of TMB reagent is added into each well and incubated in a plate shaker at the same condition above. The reaction is stopped by adding 100 μL of Stop solution to each well. The absorbance is read at 450 nm (A450) with a microplate reader. The amount of human IgG in mouse serum is determined by plotting A450 values for the assay standard against human IgG concentration.
Representative compounds of the disclosure shown in Table 2 were formulated using the following molar ratio: 50% cationic lipid/10% distearoylphosphatidylcholine (DSPC)/38.5% Cholesterol/1.5% PEG lipid 2-[2-(ω-methoxy(polyethyleneglycol2000)ethoxy]-N,N-ditetradecylacetamide) or 47.5% cationic lipid/10% DSPC/40.7% Cholesterol/1.8% PEG lipid. Relative activity was determined by measuring luciferase expression in the liver 4 hours following administration via tail vein injection as described in Example 1 or by measuring the amount of human IgG in mouse serum as described in example 2. The activity was compared at a dose of 1.0 or 0.5 or 0.3 mg mRNA/kg and expressed as ng luciferase/g liver measured 4 hours after administration, as described in Example 1 or as μg IgG/mL serum measured 24 hours after administration, as described in Example 2. Compound numbers in Table 2 refer to the compound numbers of Table 1.

| Structure (SMILES) | Serum IgG @ 0.3 mg/kg [µg/mL] | Serum IgG @ 1.0 mg/kg [µg/mL] |
| --- | --- | --- |
| CCCCCCCCCCN(CCCCCCCCCC)C(=O)CCCCCCCN(CCCCCCCC(=O)N(CCCCCCCCCC)CCCCCCCCCC)[C@H]1CC[C@@](C)(O)CC1 [(1S, 4S) I-25, 8,8′-(((1S,4S)-4-hydroxy-4-methylcyclohexyl)azanediyl)bis(N,N-didecyloctanamide)] | 39.96 ± 10.72 | 194.38 ± 27.83 |
| CCCCCCCCCCN(CCCCCCCCCC)C(=O)CCCCCCCN(CCCCCCCC(=O)N(CCCCCCCCCC)CCCCCCCCCC)[C@H]1CC[C@@H](CO)CC1 [(1S, 4S) I-23, 8,8′-(((1S,4S)-4-(hydroxymethyl)cyclohexyl)azanediyl)bis(N,N-didecyloctanamide)] | 34.48 ± 9.25 | 273.72 ± 52.70 |
| CCCCCCCCCCN(CCCCCCCCN(CCCCCCCCN(CCCCCCCCCC)C(=O)CCCCCCCCC)[C@H]1CC[C@@H](O)CC1)C(=O)CCCCCCCCC [(1S, 4S) I-63, N,N′-((((1s,4s)-4-hydroxycyclohexyl)azanediyl)bis(octane-8,1-diyl))bis(N-decyldecanamide)] | 39.32 ± 8.99 | – |
| CCCCCCCCCCN(CCCCCCCCCC)C(=O)CCCCCCCN(CCCCCCCC(=O)N(CCCCCCCCCC)CCCCCCCCCC)[C@@H]1CC[C@@H](O)C1 (racemic) [(rac)-(1RS, 3RS) I-14, 8,8′-(((1r,3r)-3-hydroxycyclopentyl)azanediyl)bis(N,N-didecyloctanamide); 8,8′-(((1s,3s)-3-hydroxycyclopentyl)azanediyl)bis(N,N-didecyloctanamide)] | 11.48 ± 1.87 | 45.96 ± 11.03 |
| CCCCCCCCCCN(CCCCCCCCCC)C(=O)CCCCCCCN(CCCCCCCC(=O)N(CCCCCCCCCC)CCCCCCCCCC)[C@H]1CC[C@@H](O)CC1 [(1S, 4S) I-9, 8,8′-(((1s,4s)-4-hydroxycyclohexyl)azanediyl)bis(N,N-didecyloctanamide)] | 97.57 ± 19.26 | 257.42 ± 91.86 |
| CCCCCCCCCCN(CCCCCCCCCC)C(=O)CCCCCCCN(CCCCCCCC(=O)N(CCCCCCCCCC)CCCCCCCCCC)C[C@H]1C[C@@H]1CO (racemic) [(rac)-(1RS, 2RS) I-45, 8,8′-((((1s,2s)-2-(hydroxymethyl)cyclopropyl)methyl)azanediyl)bis(N,N-didecyloctanamide)] | 10.95 ± 4.31 | – |
| CCCCCCCCCCN(CCCCCCCCCC)C(=O)CCCCCCCN(CCCCCCCC(=O)N(CCCC)C(CCCCCCCC)CCCCCCCC)[C@H]1CC[C@@H](O)CC1 [(1S, 4S) I-59, N-butyl-8-((8-(didecylamino)-8-oxooctyl)((1s,4s)-4-hydroxycyclohexyl)amino)-N-(heptadecan-9-yl)octanamide] | 84.23 ± 17.22 | – |
| CCCCCCCCCCCCN(CCCCCC)C(=O)CCCCCCCN(CCCCCCCC(=O)N(CCCCCCCCCC)CCCCCCCCCC)[C@H]1CC[C@@H](O)CC1 [(1S, 4S) I-56, N,N-didecyl-8-((8-(dodecyl(hexyl)amino)-8-oxooctyl)((1s,4s)-4-hydroxycyclohexyl)amino)octanamide] | 52.9 ± 17.00 | – |
| CCCCCCCCCCN(CCCCCCCCCC)C(=O)CCCCCCCCCN(CCCCCCCCCC(=O)N(CCCCCCCCCC)CCCCCCCCCC)[C@H]1CC[C@@H](O)CC1 [(1S, 4S) I-60, 10,10′-(((1s,4s)-4-hydroxycyclohexyl)azanediyl)bis(N,N-didecyldecanamide)] | 15.65 ± 5.31 | – |
| CCCCCCCCCCN(CCCCCCCCCC)C(=O)CCCCCCCN(CCCCCCCC(=O)N(CCCCCCCCCC)CCCCCCCCCC)[C@H]1C[C@H](O)C[C@H](O)C1 [(1s, 3R, 5S) I-34, 8,8′-(((1s,3r,5s)-3,5-dihydroxycyclohexyl)azanediyl)bis(N,N-didecyloctanamide)] | 7.06 ± 4.68 | 57.07 ± 24.86 |
| CCCCCCCCCCN(CCCCCCCCCC)C(=O)CCCCCCCN(CCCCCCCC(=O)N(CCCCCCCCCC)CCCCCCCCCC)C1CCC[C@H]1O (mixture of isomers) [(rac)-(1RS, 2RS) I-48, 8,8′-(((1s,2s)-2-hydroxycyclopentyl)azanediyl)bis(N,N-didecyloctanamide)] | 32.85 ± 6.90 | 216.8 ± 46.48 |
| CCCCCCCCCCN(CCCCCCCCCC)C(=O)CCCCCCCN(CCCCCCCC(=O)N(CCCCCCCCCC)CCCCCCCCCC)[C@H]1CC[C@H](O)CC1 [(1R, 4R) I-9, 8,8′-(((1R,4R)-4-hydroxycyclohexyl)azanediyl)bis(N,N-didecyloctanamide)] | 45.52 ± 6.25 | 204.57 ± 48.15 |
| CCCCCCCCCCCCN(CCCCCCCC)C(=O)CCCCCCCN(CCCCCCCC(=O)N(CCCCCCCCCC)CCCCCCCCCC)[C@H]1CC[C@@H](O)CC1 [(1S, 4S) I-55, N,N-didecyl-8-((8-(dodecyl(octyl)amino)-8-oxooctyl)((1s,4s)-4-hydroxycyclohexyl)amino)octanamide] | 72.2 ± 14.87 | – |
| C=CCCCCCCCCN(CCCCCCCCC=C)C(=O)CCCCCCCN(CCCCCCCC(=O)N(CCCCCCCCCC)CCCCCCCCCC)[C@H]1CC[C@@H](O)CC1 [(1S, 4S) I-57, N,N-di(dec-9-en-1-yl)-8-((8-(didecylamino)-8-oxooctyl)((1s,4s)-4-hydroxycyclohexyl)amino)octanamide] | 84.4 ± 35.10 | – |
| CCCCCCCCCCN(CCCCCCCCCC)C(=O)C(F)CCCCCCN(CCCCCCC(F)C(=O)N(CCCCCCCCCC)CCCCCCCCCC)[C@H]1CC[C@@H](O)CC1 (stereo partly drawn) [(1S, 4S) I-49, 8,8′-(((1s,4s)-4-hydroxycyclohexyl)azanediyl)bis(N,N-didecyl-2-fluorooctanamide)] | 60.49 ± 26.40 | 332.8 ± 57.13 |
| CCCCCCCCCC(CCCCCCCCC)NC(=O)CCCCCCCN(CCCCCCCC(=O)NC(CCCCCCCCC)CCCCCCCCC)[C@H]1CC[C@@H](O)CC1 [(1S, 4S) I-50, 8,8′-(((1s,4s)-4-hydroxycyclohexyl)azanediyl)bis(N-(nonadecan-10-yl)octanamide)] | 29.82 ± 7.79 | – |
| CCCCCCCCCCN(CCCCCCCCCC)C(=O)CCCCCCCN(CCCCCCCC(=O)N(CCCCCCCCCC)CCCCCCCCCC)[C@@H]1CC[C@H](O)C1 (racemic) [(rac)-(1RS, 3SR) I-14, 8,8′-(((1r,3s)-3-hydroxycyclopentyl)azanediyl)bis(N,N-didecyloctanamide); 8,8′-(((1s,3r)-3-hydroxycyclopentyl)azanediyl)bis(N,N-didecyloctanamide)] | 15.74 ± 5.71 | 66.16 ± 16.66 |
| CCCCCCCCCCN(CCCCCCCCCC)C(=O)CCCCCCCN(CCCCCCCC(=O)N(CCCCCCCCCC)CCCCCCCCCC)[C@H]1CC[C@](C)(O)CC1 [(1R, 4R) I-25, 8,8′-(((1R,4R)-4-hydroxy-4-methylcyclohexyl)azanediyl)bis(N,N-didecyloctanamide)] | 14.03 ± 2.71 | 105.77 ± 19.44 |
| CCCCCCCCC(CCCCCCCC)N(CCCC)C(=O)CCCCCCCN(CCCCCCCC(=O)N(CCCC)C(CCCCCCCC)CCCCCCCC)[C@H]1CC[C@@H](O)CC1 [(1S, 4S) I-54, 8,8′-(((1s,4s)-4-hydroxycyclohexyl)azanediyl)bis(N-butyl-N-(heptadecan-9-yl)octanamide)] | 43.22 ± 12.97 | – |
